Data published in patent US20150153326A1, “QUANTITATIVE ANALYSIS OF CONTACT-DEPENDENT CELL-TO-CELL TRANSFER AND DISEASE TRANSMISSION” (Bergen Teknologioverforing AS, BTO, priority 2013, published 2015).

Tested on: HeLa-Kyoto cells
Assay: contact-dependent cell-to-cell DiD organelle transfer, DiD-stained/unstained 1:400 co-culture, 3D confocal quantification
Format: cell-based
Settings: 100 nM, added 2 hours after plating, cells fixed after 18 hours, 1:400 cell ratio
Procedure: HeLa-Kyoto cells were cultured in DMEM:F12 supplemented with 10% fetal calf serum and 1% penicillin/streptomycin (Invitrogen Detection Technologies, Carlsbad, Calif., USA) on 24-well microscopy plates (Greiner Bio-One GmbH). Cells were maintained under humidified air supplemented with 5% CO2 at 37° C. and plated with a density of approximately 35 000 cells/cm^2. After 24 hours, 200 ng (5 μl)/ml lipid analog Vybrant® DiD Cell-Labelling solution (Invitrogen Detection Technologies, Carlsbad, Calif., USA) was added to the plated cells in culture medium, incubated at 37° C. for 20 min wherein tilted 5 times. After the incubation period, the culture medium was exchanged 4 times within 2 hours. […]
Cells were imaged with a Leica confocal SP5 in resonant scanner mode (zoom 1.7; pinhole airyl; 40× 1.25NA oil immersion objective; 512×512 pixel; z-distance 1.01 μm, line-average 16; offset −1; gain 900-1000V. For the DiD-channel laser power was adjusted for each experiment to a strength resulting in approximately half a cell diameter of out-of-detection range data for average donor cells in order to quantify the transferred DiD in the surrounding cells, present in much lower quantities. For all other channels, the laser power was adjusted to few out-of-detection range pixels at the upper end of the scale. […]

In the case of `C=C1[C@@H](C)[C@H]2[C@H](Cc3ccccc3)NC(=O)[C@]23[C@H](OC(C)=O)/C=C/[C@@](C)(O)C(=O)[C@@H](C)C/C=C/[C@H]3[C@@H]1O` [Cytochalasin D], the “contact-dependent cell-to-cell DiD transfer (integrated intensity of DiD signal inside acceptor cells) compared to control” value was “substantially inhibited”.
